Reference: PubChem BioAssay AID248 (DTP/NCI, 2004)
Where “and” joins values, the source holds several entries; their conditions need not be identical. Equal values may be shown once. Toxic doses and inconclusive results are not listed. Rule as the data show it: active = T/C of 150% or more; inactive = T/C below 125%.

Tested on: L1210 leukemia ip in BDF1 mice, survival T/C
Test: NCI In Vivo Anticancer Drug Screen. Data for tumor model L1210 Leukemia (intraperitoneal) in B6D2F1 (BDF1) mice
Settings: endpoint: mean survival time, higher = longer survival
Procedure, shortened: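 Transplantable tumor model; survival measured in treated vs vehicle control mice. Value = treated/control.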

[1] = dose: 100.0 mg/kg/injection, schedule: Q01DX001 (ip), vehicle: other
[2] = dose: 200.0 mg/kg/injection, schedule: Q01DX001 (ip), vehicle: other
[3] = dose: 100.0 mg/kg/injection, schedule: Q04DX003 (ip), vehicle: saline with Tween-80
[4] = dose: 200.0 mg/kg/injection, schedule: Q04DX003 (ip), vehicle: saline with Tween-80
[5] = dose: 400.0 mg/kg/injection, schedule: Q04DX003 (ip), vehicle: saline with Tween-80

Measured: T/C

CCCCCCCCCCCCNC(=O)c1ccc[n+](C)c1
inactive: dose: 6.25 mg/kg/injection, schedule: Q01DX009 (ip), vehicle: acetone 95 % of control | dose: 6.25 mg/kg/injection, schedule: Q04DX003 (ip), vehicle: saline 91 % of control | dose: 12.5 mg/kg/injection, schedule: Q01DX001 (ip), vehicle: saline 105 % of control | dose: 12.5 mg/kg/injection, schedule: Q01DX009 (ip), vehicle: acetone 98 % of control | dose: 12.5 mg/kg/injection, schedule: Q04DX003 (ip), vehicle: saline 92 % of control and 103 % of control | dose: 25.0 mg/kg/injection, schedule: Q01DX001 (ip), vehicle: saline 104 % of control | dose: 25.0 mg/kg/injection, schedule: Q01DX009 (ip), vehicle: acetone 95 % of control | dose: 25.0 mg/kg/injection, schedule: Q04DX003 (ip), vehicle: saline 94 % of control and 91 % of control | dose: 50.0 mg/kg/injection, schedule: Q04DX003 (ip), vehicle: saline 96 % of control

CCCCCN(C)N=Nc1ccccc1C(N)=O
inactive: [1] 106 % of control | dose: 100.0 mg/kg/injection, schedule: Q01DX009 (ip), vehicle: Klucel (hydroxypropylcellulose) (HPC) 114 % of control | dose: 100.0 mg/kg/injection, schedule: Q04DX003 (ip), vehicle: Klucel (hydroxypropylcellulose) (HPC) 109 % of control | [2] 112 % of control | dose: 200.0 mg/kg/injection, schedule: Q01DX009 (ip), vehicle: Klucel (hydroxypropylcellulose) (HPC) 115 % of control | dose: 200.0 mg/kg/injection, schedule: Q04DX003 (ip), vehicle: Klucel (hydroxypropylcellulose) (HPC) 101 % of control | dose: 400.0 mg/kg/injection, schedule: Q01DX001 (ip), vehicle: other 115 % of control | dose: 400.0 mg/kg/injection, schedule: Q04DX003 (ip), vehicle: Klucel (hydroxypropylcellulose) (HPC) 112 % of control

C=CCc1cc(OC)c2c(c1OC)C(=O)c1cccc(OC)c1C2=O
inactive: [3] 97 % of control | [4] 105 % of control

C[n+]1cc(N)cc2ccccc21
inactive: dose: 10.0 mg/kg/injection, schedule: Q01DX001 (ip), vehicle: other 105 % of control | dose: 20.0 mg/kg/injection, schedule: Q01DX001 (ip), vehicle: other 105 % of control | dose: 40.0 mg/kg/injection, schedule: Q01DX001 (ip), vehicle: other 109 % of control

CCOC(=O)C1C(=O)C(C(=O)Nc2ccccc2)C(=O)C(C(=O)OCC)C1c1ccc(O)cc1 (stereo unspecified)
inactive: [1] 91 % of control and 97 % of control | dose: 100.0 mg/kg/injection, schedule: Q01DX009 (ip), vehicle: saline with Tween-80 102 % of control and 100 % of control | [3] 103 % of control and 97 % of control | [2] 94 % of control and 91 % of control | dose: 200.0 mg/kg/injection, schedule: Q01DX009 (ip), vehicle: saline with Tween-80 96 % of control and 100 % of control | [4] 97 % of control | dose: 400.0 mg/kg/injection, schedule: Q01DX009 (ip), vehicle: saline with Tween-80 100 % of control and 101 % of control | [5] 97 % of control and 96 % of control

O=C(O)/C=C/c1ccc([N+](=O)[O-])s1
inactive: dose: 100.0 mg/kg/injection, schedule: Q04DX002 (ip), vehicle: Klucel (hydroxypropylcellulose) (HPC) 90 % of control | dose: 200.0 mg/kg/injection, schedule: Q04DX002 (ip), vehicle: Klucel (hydroxypropylcellulose) (HPC) 90 % of control

C=C1C(=O)O[C@H]2C1[C@H](OC(=O)/C(C)=C\COC(C)=O)C[C@]1(CO1)[C@@H]1[C@H](O)[C@H]3O[C@@]3(C)[C@@H]12 (stereo partly specified)
inactive: dose: 25.0 mg/kg/injection, schedule: Q04DX002 (ip), vehicle: other 105 % of control | dose: 50.0 mg/kg/injection, schedule: Q04DX002 (ip), vehicle: other 103 % of control | dose: 100.0 mg/kg/injection, schedule: Q04DX002 (ip), vehicle: other 97 % of control and 100 % of control

C1=CN2CCCN3C=CC=c4ccc(c2c43)=C1
inactive: dose: 7.5 mg/kg/injection, schedule: Q01DX009 (ip), vehicle: saline 100 % of control | dose: 15.0 mg/kg/injection, schedule: Q01DX009 (ip), vehicle: saline 98 % of control

C=C(Cl)CSCCO
inactive: [3] 92 % of control | [4] 97 % of control | [5] 97 % of control

COc1cccc(C2NC(=S)N3C(c4cccc(OC)c4)NC(=S)N23)c1 (stereo unspecified)
inactive: dose: 100.0 mg/kg/injection, schedule: Q01DX009 (ip), vehicle: gum acacia 108 % of control | dose: 100.0 mg/kg/injection, schedule: Q04DX003 (ip), vehicle: gum acacia 88 % of control | dose: 200.0 mg/kg/injection, schedule: Q01DX009 (ip), vehicle: gum acacia 99 % of control | dose: 200.0 mg/kg/injection, schedule: Q04DX003 (ip), vehicle: gum acacia 100 % of control | dose: 400.0 mg/kg/injection, schedule: Q01DX009 (ip), vehicle: gum acacia 93 % of control | dose: 400.0 mg/kg/injection, schedule: Q04DX003 (ip), vehicle: gum acacia 95 % of control
